# Measurements taken from ChEMBL document CHEMBL6078678, “Unveiling the Antimycobacterial Potential of Novel 4-Alkoxyquinolines: Insights into Selectivity, Mechanism of Action, and In Vivo Exposure” (J Med Chem, 2024).
# Tested on: Mycobacterium tuberculosis
# Assay: microbe, parasite or virus in culture
row,SMILES,MIC [µM]
1,Cc1cc(OCCCNc2ccc(Br)cc2)c2cc(Cl)ccc2n1,< 0.06
2,COc1ccc2nc(C)cc(OCCCNc3ccc(Br)cc3)c2c1,< 0.05
3,Cc1cc(OCCCNc2ccc(Cl)cc2)c2cc(Br)ccc2n1,< 0.05
4,CCc1ccc(NCCCOc2cc(C)nc3ccc(Cl)cc23)cc1,< 0.06
5,COc1ccc2nc(C)cc(OCCCNc3ccc(I)cc3)c2c1,< 0.05
6,CCc1ccc(NCCCOc2cc(CC)nc3ccc(Br)cc23)cc1,< 0.05
7,CCc1ccc(NCCCOc2cc(C)nc3ccc(Br)cc23)cc1,< 0.05

# Tested on: Mycobacterium tuberculosis
# Assay: microbe, parasite or virus in culture
# Remark: another data set of the same source
row,SMILES,MIC [µM]
1,Cc1cc(OCCCNc2ccc(Br)cc2)c2cc(Cl)ccc2n1,< 0.06
2,COc1ccc2nc(C)cc(OCCCNc3ccc(Br)cc3)c2c1,< 0.05
3,Cc1cc(OCCCNc2ccc(Cl)cc2)c2cc(Br)ccc2n1,< 0.05
4,CCc1ccc(NCCCOc2cc(C)nc3ccc(Cl)cc23)cc1,< 0.06
5,COc1ccc2nc(C)cc(OCCCNc3ccc(I)cc3)c2c1,< 0.05
6,CCc1ccc(NCCCOc2cc(CC)nc3ccc(Br)cc23)cc1,< 0.05
7,CCc1ccc(NCCCOc2cc(C)nc3ccc(Br)cc23)cc1,< 0.05

# Tested on: Mycobacterium tuberculosis
# Assay: microbe, parasite or virus in culture
# Remark: another data set of the same source
row,SMILES,MIC [µM]
1,Cc1cc(OCCCNc2ccc(Br)cc2)c2cc(Cl)ccc2n1,< 0.06
2,COc1ccc2nc(C)cc(OCCCNc3ccc(Br)cc3)c2c1,< 0.05
3,Cc1cc(OCCCNc2ccc(Cl)cc2)c2cc(Br)ccc2n1,< 0.05
4,CCc1ccc(NCCCOc2cc(C)nc3ccc(Cl)cc23)cc1,< 0.06
5,COc1ccc2nc(C)cc(OCCCNc3ccc(I)cc3)c2c1,< 0.05
6,CCc1ccc(NCCCOc2cc(CC)nc3ccc(Br)cc23)cc1,< 0.05
7,CCc1ccc(NCCCOc2cc(C)nc3ccc(Br)cc23)cc1,< 0.05
